{"source": "paper PMC8661809", "about": "(Protein Science : A Publication of the Protein Society, 2021)", "target": "CTD of SARS‐CoV‐2 N protein (Severe acute respiratory syndrome coronavirus 2, UniProt P0DTC9)", "assay": "biochemical", "format": "binding", "data": [{"smiles": "Nc1ncnc2c1ncn2[C@@H]1O[C@H](COP(=O)(O)OP(=O)(O)OP(=O)(O)O)[C@@H](O)[C@H]1O", "note": "[ATP]", "values": [{"measurement": "Kd", "result": "1490 ± 280", "unit": "µM"}]}]}
